ChEMBL document CHEMBL3870304 (Eur J Med Chem, 2016)

Columns and labels:
cells [1] = details: Homo sapiens, HCC78, 72 h
Description: Cytotoxicity against human HCC78 cells harboring SLC34A2-ROS1 assessed as reduction in cell proliferation after 72 hrs by MTT assay

[2] = molecular target: Proto-oncogene tyrosine-protein kinase ROS (Homo sapiens, UniProt P08922)
Description: Inhibition of ROS1 (unknown origin) using peptide as substrate after 60 mins by HTRF assay

cells [3] = details: Homo sapiens, NCI-H460, 72 h
Description: Cytotoxicity against human NCI-H460 cells assessed as reduction in cell proliferation after 72 hrs by MTT assay

cells [4] = details: Homo sapiens, HT-29, 72 h
Description: Cytotoxicity against human HT-29 cells assessed as reduction in cell proliferation after 72 hrs by MTT assay

cells [5] = details: Homo sapiens, A549, 72 h
Description: Cytotoxicity against human A549 cells assessed as reduction in cell proliferation after 72 hrs by MTT assay

[6] = system: ALK tyrosine kinase receptor (Homo sapiens), Q9UM73 [L1196M]; assay: Potency index, ratio of crizotinib IC50 to compound IC50 for ALK L1196M mutant (unknown origin)
[7] = molecular target: Hepatocyte growth factor receptor (Homo sapiens, UniProt P08581)
Description: Inhibition of c-Met (unknown origin) using peptide as substrate after 60 mins by HTRF assay

cells [8] = details: Homo sapiens, KARPAS-299, 72 h
Description: Cytotoxicity against human KARPAS299 cells harboring NPM-ALK assessed as reduction in cell proliferation after 72 hrs by MTT assay

[9] = molecular target: Epidermal growth factor receptor (Homo sapiens, UniProt P00533)
Description: Inhibition of EGFR (unknown origin) using peptide as substrate after 60 mins by HTRF assay

[10] = molecular target: T1, ALK tyrosine kinase receptor (Homo sapiens, UniProt Q9UM73)
Target sequence in this assay (Q9UM73 whole entry): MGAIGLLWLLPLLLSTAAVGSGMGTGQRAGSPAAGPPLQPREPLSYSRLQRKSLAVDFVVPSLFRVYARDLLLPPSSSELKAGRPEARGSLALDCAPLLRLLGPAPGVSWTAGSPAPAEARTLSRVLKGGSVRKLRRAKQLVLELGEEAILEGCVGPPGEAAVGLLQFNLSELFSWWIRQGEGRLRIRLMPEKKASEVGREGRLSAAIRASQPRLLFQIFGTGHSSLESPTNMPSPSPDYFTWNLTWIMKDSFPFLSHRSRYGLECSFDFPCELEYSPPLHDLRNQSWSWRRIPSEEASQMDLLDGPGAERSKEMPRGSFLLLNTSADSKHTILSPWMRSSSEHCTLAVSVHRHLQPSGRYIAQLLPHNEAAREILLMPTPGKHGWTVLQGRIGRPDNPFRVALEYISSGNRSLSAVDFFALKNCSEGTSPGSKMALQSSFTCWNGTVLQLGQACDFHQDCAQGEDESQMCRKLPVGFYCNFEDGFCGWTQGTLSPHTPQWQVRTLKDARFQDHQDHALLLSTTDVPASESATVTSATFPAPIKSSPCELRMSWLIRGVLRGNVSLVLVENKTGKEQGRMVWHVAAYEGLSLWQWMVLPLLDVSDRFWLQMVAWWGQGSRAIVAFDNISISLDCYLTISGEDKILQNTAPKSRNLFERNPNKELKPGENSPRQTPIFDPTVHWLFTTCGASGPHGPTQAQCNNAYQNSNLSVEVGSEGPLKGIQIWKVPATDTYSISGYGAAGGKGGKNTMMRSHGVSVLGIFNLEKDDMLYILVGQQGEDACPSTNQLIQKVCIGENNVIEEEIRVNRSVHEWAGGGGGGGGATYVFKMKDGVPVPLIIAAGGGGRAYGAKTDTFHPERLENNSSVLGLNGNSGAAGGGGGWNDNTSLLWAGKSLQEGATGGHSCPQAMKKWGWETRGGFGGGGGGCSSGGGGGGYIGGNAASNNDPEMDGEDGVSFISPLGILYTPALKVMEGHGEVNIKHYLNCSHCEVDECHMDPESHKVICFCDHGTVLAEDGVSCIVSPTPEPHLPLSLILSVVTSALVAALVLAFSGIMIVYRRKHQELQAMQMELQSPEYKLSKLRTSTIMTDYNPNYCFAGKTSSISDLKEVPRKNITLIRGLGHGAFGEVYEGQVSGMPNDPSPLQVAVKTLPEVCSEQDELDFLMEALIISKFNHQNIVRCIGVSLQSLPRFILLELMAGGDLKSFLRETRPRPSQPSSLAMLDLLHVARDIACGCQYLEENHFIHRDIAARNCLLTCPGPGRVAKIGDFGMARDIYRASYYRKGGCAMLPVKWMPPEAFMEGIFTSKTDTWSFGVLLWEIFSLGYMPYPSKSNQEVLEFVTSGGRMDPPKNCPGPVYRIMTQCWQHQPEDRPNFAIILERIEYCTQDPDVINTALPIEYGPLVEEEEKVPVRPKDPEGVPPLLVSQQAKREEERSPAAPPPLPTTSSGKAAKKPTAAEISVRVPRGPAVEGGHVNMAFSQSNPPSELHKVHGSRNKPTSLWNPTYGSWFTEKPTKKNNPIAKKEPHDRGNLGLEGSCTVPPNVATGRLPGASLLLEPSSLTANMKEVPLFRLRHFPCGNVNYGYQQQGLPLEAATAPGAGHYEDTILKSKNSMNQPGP
Description: Inhibition of ALK (unknown origin) using peptide as substrate after 60 mins by HTRF assay

[11] = molecular target: ALK tyrosine kinase receptor (Homo sapiens, UniProt Q9UM73, L1196M)
[12] = molecular target: T1, ALK tyrosine kinase receptor; assay: Potency index, ratio of crizotinib IC50 to compound IC50 for ALK (unknown origin)
HCC78 = assay: Potency index, ratio of crizotinib IC50 to compound IC50 against human HCC78 cells harboring SLC34A2-ROS1; assay type: functional
KARPAS-299 = assay: Potency index, ratio of crizotinib IC50 to compound IC50 against human KARPAS299 cells harboring NPM-ALK; assay type: functional

Sequence of Hepatocyte growth factor receptor (P08581 whole entry): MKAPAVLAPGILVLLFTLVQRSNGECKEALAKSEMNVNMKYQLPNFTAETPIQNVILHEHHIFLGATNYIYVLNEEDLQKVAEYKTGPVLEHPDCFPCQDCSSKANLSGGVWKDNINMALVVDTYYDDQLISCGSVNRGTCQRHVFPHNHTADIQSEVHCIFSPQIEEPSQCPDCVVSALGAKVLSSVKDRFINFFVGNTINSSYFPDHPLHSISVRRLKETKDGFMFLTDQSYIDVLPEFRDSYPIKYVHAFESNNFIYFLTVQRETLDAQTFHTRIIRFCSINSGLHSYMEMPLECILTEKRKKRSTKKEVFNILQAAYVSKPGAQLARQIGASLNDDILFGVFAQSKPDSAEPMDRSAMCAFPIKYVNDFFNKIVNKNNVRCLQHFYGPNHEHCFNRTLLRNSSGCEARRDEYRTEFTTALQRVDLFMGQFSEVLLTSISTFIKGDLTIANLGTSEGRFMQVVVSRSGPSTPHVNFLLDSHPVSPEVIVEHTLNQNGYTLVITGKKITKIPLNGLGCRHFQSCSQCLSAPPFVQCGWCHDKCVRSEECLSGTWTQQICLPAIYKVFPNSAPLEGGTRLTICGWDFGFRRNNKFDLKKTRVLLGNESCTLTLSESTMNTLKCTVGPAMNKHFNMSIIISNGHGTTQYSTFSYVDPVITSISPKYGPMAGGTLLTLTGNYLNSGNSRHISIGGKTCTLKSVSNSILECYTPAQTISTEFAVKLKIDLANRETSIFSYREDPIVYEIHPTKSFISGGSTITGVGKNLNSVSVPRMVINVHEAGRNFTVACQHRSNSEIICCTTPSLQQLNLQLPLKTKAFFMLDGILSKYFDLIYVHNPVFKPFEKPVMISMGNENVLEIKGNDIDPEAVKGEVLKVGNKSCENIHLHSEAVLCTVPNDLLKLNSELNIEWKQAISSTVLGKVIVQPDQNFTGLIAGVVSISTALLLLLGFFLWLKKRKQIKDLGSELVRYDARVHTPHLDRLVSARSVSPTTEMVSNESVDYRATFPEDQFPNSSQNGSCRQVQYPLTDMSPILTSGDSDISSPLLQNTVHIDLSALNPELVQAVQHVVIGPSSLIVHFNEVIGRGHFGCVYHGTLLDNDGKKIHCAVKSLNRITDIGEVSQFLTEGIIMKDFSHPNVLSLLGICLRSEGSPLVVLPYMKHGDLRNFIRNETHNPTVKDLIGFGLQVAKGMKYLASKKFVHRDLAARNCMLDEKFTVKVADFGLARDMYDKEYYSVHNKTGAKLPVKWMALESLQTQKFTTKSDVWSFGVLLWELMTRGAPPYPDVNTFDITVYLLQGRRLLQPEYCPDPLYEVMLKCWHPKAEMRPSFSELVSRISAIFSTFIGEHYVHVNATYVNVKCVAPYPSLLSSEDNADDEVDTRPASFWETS
Sequence of Epidermal growth factor receptor (P00533 whole entry): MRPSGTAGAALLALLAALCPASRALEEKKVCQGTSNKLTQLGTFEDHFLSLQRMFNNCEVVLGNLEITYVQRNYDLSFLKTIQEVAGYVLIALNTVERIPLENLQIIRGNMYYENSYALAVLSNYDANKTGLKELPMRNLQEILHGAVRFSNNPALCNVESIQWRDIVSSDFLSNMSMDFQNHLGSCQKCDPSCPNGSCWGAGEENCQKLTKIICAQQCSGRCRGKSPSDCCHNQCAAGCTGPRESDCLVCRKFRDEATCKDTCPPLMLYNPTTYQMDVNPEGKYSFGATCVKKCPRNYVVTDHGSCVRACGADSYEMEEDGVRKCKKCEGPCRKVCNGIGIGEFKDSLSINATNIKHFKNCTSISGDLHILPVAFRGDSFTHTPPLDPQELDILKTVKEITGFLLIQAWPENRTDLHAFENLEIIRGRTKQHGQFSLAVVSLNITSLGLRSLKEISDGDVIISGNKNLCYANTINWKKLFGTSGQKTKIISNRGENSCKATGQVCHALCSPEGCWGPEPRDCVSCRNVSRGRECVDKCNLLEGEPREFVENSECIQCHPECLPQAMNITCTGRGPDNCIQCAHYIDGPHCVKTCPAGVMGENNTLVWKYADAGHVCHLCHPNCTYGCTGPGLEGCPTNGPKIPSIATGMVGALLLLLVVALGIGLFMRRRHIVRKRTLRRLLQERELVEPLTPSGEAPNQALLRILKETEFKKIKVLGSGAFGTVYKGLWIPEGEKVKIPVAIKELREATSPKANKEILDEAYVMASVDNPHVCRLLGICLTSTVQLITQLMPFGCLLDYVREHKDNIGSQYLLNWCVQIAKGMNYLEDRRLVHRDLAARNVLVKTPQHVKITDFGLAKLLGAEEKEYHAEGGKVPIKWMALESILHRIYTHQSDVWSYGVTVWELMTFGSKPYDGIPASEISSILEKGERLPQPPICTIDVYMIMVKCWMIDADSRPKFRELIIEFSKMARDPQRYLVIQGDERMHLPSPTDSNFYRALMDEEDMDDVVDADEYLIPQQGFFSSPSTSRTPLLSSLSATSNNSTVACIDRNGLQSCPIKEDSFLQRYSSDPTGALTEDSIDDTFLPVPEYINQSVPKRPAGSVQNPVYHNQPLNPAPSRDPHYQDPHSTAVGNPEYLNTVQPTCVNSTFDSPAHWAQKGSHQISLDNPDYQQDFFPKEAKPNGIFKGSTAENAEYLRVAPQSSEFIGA
Sequence of ALK tyrosine kinase receptor (Homo sapiens), Q9UM73 [L1196M] (Q9UM73 whole entry L1196M, looked up): as the sequence (Q9UM73 whole entry) above, with L1196M counted along it

SMILES | IC50 (cells [1]) [nM] | IC50 [2] [nM] | IC50 (cells [3]) [nM] | IC50 (cells [4]) [nM] | IC50 (cells [5]) [nM] | Ratio IC50 [6] | IC50 [7] [nM] | IC50 (cells [8]) [nM] | IC50 [9] [nM] | IC50 [10] [nM] | IC50 [11] [nM] | Ratio IC50 [12] | Ratio IC50 (HCC78) | Ratio IC50 (KARPAS-299)
COc1ccc(/C(C)=N/Nc2ncc(Cl)c(Nc3ccccc3S(=O)(=O)C(C)C)n2)cc1 | 31 | 4.7 | 2500 | > 10000 | 2120 | 20 | > 1000 | 34 | > 1000 | 4.9 | 80 | – | – | –
CC(C)S(=O)(=O)c1ccccc1Nc1nc(N/N=C/c2ccco2)ncc1Cl | 2520 | – | 1030 | 3100 | 1940 | – | – | 750 | – | – | – | – | – | –
COc1cc(/C=N/Nc2ncc(Cl)c(Nc3ccccc3S(=O)(=O)C(C)C)n2)cc(OC)c1OC | 19 | – | 1230 | 2150 | 1150 | – | – | 20 | – | – | – | – | – | –
COc1ccccc1/C=N/Nc1ncc(Cl)c(Nc2ccccc2S(=O)(=O)C(C)C)n1 | 4160 | – | > 10000 | > 10000 | 7040 | – | – | 6930 | – | – | – | – | – | –
Cc1cc(Nc2ncc(Cl)c(Nc3ccccc3S(=O)(=O)C(C)C)n2)c(OC(C)C)cc1C1CCNCC1 [CERITINIB] | 18 | – | > 10000 | > 10000 | > 10000 | – | – | 27 | – | – | – | – | – | –
CC(C)S(=O)(=O)c1ccccc1Nc1nc(N/N=C/c2cccnc2)ncc1Cl | 970 | – | 1530 | 830 | 1150 | – | – | 930 | – | – | – | – | – | –
CC(C)S(=O)(=O)c1ccccc1Nc1nc(N/N=C/c2ccccc2)ncc1Cl | 470 | – | 1480 | 1320 | 1230 | – | – | 250 | – | – | – | – | – | –
CC(C)S(=O)(=O)c1ccccc1Nc1nc(N/N=C/c2ccc([N+](=O)[O-])cc2)ncc1Cl | 1980 | – | > 10000 | 1720 | 9250 | – | – | 2970 | – | – | – | – | – | –
Cc1ccc(/C=N/Nc2ncc(Cl)c(Nc3ccccc3S(=O)(=O)C(C)C)n2)cc1 | 1730 | – | 1650 | > 10000 | 4420 | – | – | 1620 | – | – | – | – | – | –
COc1cccc(/C=N/Nc2ncc(Cl)c(Nc3ccccc3S(=O)(=O)C(C)C)n2)c1 | 44 | 5.8 | 2230 | 5570 | 1250 | 20 | 376 | 22 | 601 | 6.2 | 86 | – | – | –
COc1ccc(/C=N/Nc2ncc(Cl)c(Nc3ccccc3S(=O)(=O)C(C)C)n2)cc1 | 20 | 2.3 | 1320 | 1130 | 580 | 20 | 157 | 28 | 587 | 4.8 | 82 | – | – | –
CC(C)S(=O)(=O)c1ccccc1Nc1nc(N/N=C/c2ccc(C#N)cc2)ncc1Cl | 270 | – | 2830 | 2960 | 2510 | – | – | 340 | – | – | – | – | – | –
CC(C)S(=O)(=O)c1ccccc1Nc1nc(N/N=C/c2ccccc2Cl)ncc1Cl | 6300 | – | 7120 | > 10000 | 7900 | – | – | 5620 | – | – | – | – | – | –
CSc1ccc(/C(C)=N/Nc2ncc(Cl)c(Nc3ccccc3S(=O)(=O)C(C)C)n2)cc1 | 850 | – | > 10000 | 5430 | > 10000 | – | – | 490 | – | – | – | – | – | –
C/C(=N\Nc1ncc(Cl)c(Nc2ccccc2S(=O)(=O)C(C)C)n1)c1ccc(F)cc1 | 28 | 2.7 | > 10000 | > 10000 | > 10000 | 20 | > 1000 | 20 | > 1000 | 2.5 | 67 | 9 | 11.1 | 2.4
CC(C)S(=O)(=O)c1ccccc1Nc1nc(N/N=C/c2ccccc2F)ncc1Cl | 360 | – | 1230 | 1420 | > 10000 | – | – | 450 | – | – | – | – | – | –
CC(C)S(=O)(=O)c1ccccc1Nc1nc(N/N=C/c2ccc(F)cc2F)ncc1Cl | 110 | – | 3360 | > 10000 | 2280 | – | – | 100 | – | – | – | – | – | –

SMILES | IC50 (cells [1]) [nM] | IC50 [2] [nM] | IC50 (cells [3]) [nM] | IC50 (cells [4]) [nM] | IC50 (cells [5]) [nM] | Ratio IC50 [6] | IC50 [7] [nM] | IC50 (cells [8]) [nM] | IC50 [9] [nM] | IC50 [10] [nM] | IC50 [11] [nM] | Ratio IC50 [12] | Ratio IC50 (HCC78) | Ratio IC50 (KARPAS-299)
CC(C)S(=O)(=O)c1ccccc1Nc1nc(N/N=C/c2ccc(Br)cc2)ncc1Cl | 950 | – | 3130 | 2300 | 1310 | – | – | 1440 | – | – | – | – | – | –
CC(C)S(=O)(=O)c1ccccc1Nc1nc(N/N=C/c2cccc(C(F)(F)F)c2)ncc1Cl | 80 | 5 | > 10000 | 5500 | 3340 | 20 | 479 | 65 | 460 | 5.5 | 69 | – | – | –
C/C(=N\Nc1ncc(Cl)c(Nc2ccccc2S(=O)(=O)C(C)C)n1)c1ccccc1F | 600 | – | 7150 | > 10000 | > 10000 | – | – | 540 | – | – | – | – | – | –
CSc1ccc(/C=N/Nc2ncc(Cl)c(Nc3ccccc3S(=O)(=O)C(C)C)n2)cc1 | 210 | – | 320 | 980 | 880 | – | – | 280 | – | – | – | – | – | –
CC(C)S(=O)(=O)c1ccccc1Nc1nc(N/N=C/c2ccc(OC(F)(F)F)cc2)ncc1Cl | 31 | 5.5 | 1200 | 1930 | 980 | 20 | 393 | 30 | 898 | 5.5 | 79 | – | – | –
CC(C)S(=O)(=O)c1ccccc1Nc1nc(N/N=C/c2cccs2)ncc1Cl | 880 | – | 570 | 880 | 470 | – | – | 910 | – | – | – | – | – | –
CC(C)S(=O)(=O)c1ccccc1Nc1nc(N/N=C/c2ccncc2)ncc1Cl | 820 | – | 1130 | 980 | 1420 | – | – | 870 | – | – | – | – | – | –
CC(C)S(=O)(=O)c1ccccc1Nc1nc(N/N=C/c2ccc(S(C)(=O)=O)cc2)ncc1Cl | 310 | – | 2020 | 1100 | 1330 | – | – | 240 | – | – | – | – | – | –
C/C(=N\Nc1ncc(Cl)c(Nc2ccccc2S(=O)(=O)C(C)C)n1)c1ccc(Br)cc1 | 2380 | – | > 10000 | > 10000 | 4840 | – | – | 2500 | – | – | – | – | – | –
C/C(=N\Nc1ncc(Cl)c(Nc2ccccc2S(=O)(=O)C(C)C)n1)c1ccc(F)cc1F | 670 | – | > 10000 | 2120 | 1650 | – | – | 440 | – | – | – | – | – | –
CC(C)S(=O)(=O)c1ccccc1Nc1nc(N/N=C/c2ccc(C(F)(F)F)cc2)ncc1Cl | 82 | 3.4 | > 10000 | 1120 | 940 | 20 | 380 | 35 | 593 | 3.6 | 73 | – | – | –
C/C(=N\Nc1ncc(Cl)c(Nc2ccccc2S(=O)(=O)C(C)C)n1)c1ccc(C)cc1 | 2840 | – | > 10000 | > 10000 | > 10000 | – | – | 2230 | – | – | – | – | – | –
CC(C)S(=O)(=O)c1ccccc1Nc1nc(N/N=C/c2ccc(Cl)cc2)ncc1Cl | 1700 | – | 2900 | 8190 | 2930 | – | – | 1320 | – | – | – | – | – | –
C/C(=N\Nc1ncc(Cl)c(Nc2ccccc2S(=O)(=O)C(C)C)n1)c1ccc(C#N)cc1 | 310 | – | 6840 | > 10000 | > 10000 | – | – | 270 | – | – | – | – | – | –
CC(C)S(=O)(=O)c1ccccc1Nc1nc(N/N=C/c2ccc(F)cc2)ncc1Cl | 19 | 1.8 | 1300 | 1760 | 1400 | 20 | 220 | 16 | 570 | 2.3 | 45 | 9 | – | –
CC(C)S(=O)(=O)c1ccccc1Nc1nc(N/N=C/c2cccc(Br)c2)ncc1Cl | 1200 | – | > 10000 | 1030 | 1090 | – | – | 1400 | – | – | – | – | – | –
